Source: patent US12139459B2, “Enhancer of fertilization function of sperm” (TOHOKU UNIVERSITY, priority 2018, dated 2024)

Tests used:
[1] = test system: sperms of male C57/B6 mice (fertilization function of a mammal sperm); experiment: Semination by in vitro fertilization with sperms precultured in test culture medium; two-cell egg formation; assay type: cell-based

melting point [°C]	SMILES	other results
200 to 202	Cc1ccc2[nH]cc(C(CC(=O)c3ccc(F)cc3F)C(=O)O)c2c1 (centres unmarked) [(3-3), 4-(2,4-difluorophenyl)-2-(5-methyl-1H-indol-3-yl)-4-oxo-butanoic Acid]	
177 to 178	O=C(CC(C(=O)O)c1c[nH]c2cc(OCc3ccccc3)ccc12)c1ccc(F)cc1F (centres unmarked) [(4-2), 2-(6-benzyloxy-1H-indol-3-yl)-4-(2,4-difluorophenyl)-4-oxo-butanoic Acid]	
207 to 208	O=C(CC(C(=O)O)c1c[nH]c2ccc(F)cc12)c1ccc(F)cc1F (centres unmarked)	
139 to 141	CCCn1cc(C(CC(=O)c2ccc(C)cc2C)C(=O)O)c2ccccc21 (centres unmarked) [Compound #6, 4-(2,4-Dimethylphenyl)-2-(1-propyl-1H-indol-3-yl)-4-oxo-butanoic Acid]	
133.6 to 136.8	CCCOc1ccc2[nH]cc(CC(=O)O)c2c1 [Compound #38, 5-(1-Propoxy)-3-indoleacetic Acid]	
203 to 204	O=C(CC(C(=O)O)c1c[nH]c2cccc(Cl)c12)c1ccc(F)cc1F (centres unmarked) [(2-1), 2-(4-chloro-1H-indol-3-yl)-4-(2,4-difluorophenyl)-4-oxo-butanoic Acid]	
86 to 92.7	CCOc1ccc2[nH]cc(CC(=O)O)c2c1 [Compound #37, 5-Ethoxy-3-indoleacetic Acid]	
149 to 150	O=C(CC(C(=O)O)c1c[nH]c2ccccc12)c1ccccc1 (centres unmarked) [Compound #20, 4-Phenyl-2-(1H-indol-3-yl)-4-oxo-butanoic Acid]	
210 to 214	O=C(CC(C(=O)O)c1c[nH]c2cc(F)ccc12)c1ccc(F)cc1F (centres unmarked) [Compound (4-1), 4-(2,4-difluorophenyl)-2-(6-fluoro-1H-indol-3-yl)-4-oxo-butanoic Acid]	
192 to 193	Cn1cc(C(CC(=O)c2ccc(F)cc2F)C(=O)O)c2ccccc21 (centres unmarked) [(6-1), 4-(2,4-difluorophenyl)-2-(1-methyl-1H-indol-3-yl)-4-oxo-butanoic Acid]	
225 to 227	O=C(CC(C(=O)O)c1c[nH]c2c(Cl)cccc12)c1ccc(F)cc1F (centres unmarked) [(5-1), 2-(7-chloro-1H-indol-3-yl)-4-(2,4-difluorophenyl)-4-oxo-butanoic Acid]	
	O=C(CC(C(=O)O)c1c[nH]c2ccccc12)c1ccc(F)cc1F (centres unmarked) [Compound #5, 4-(2,4-Difluorophenyl)-2-(1H-indol-3-yl)-4-oxo-butanoic Acid]	The number of two-cell eggs ([1]; sperms precultured 1 hour in TYH culture medium containing 1 μM compound #5, 11 ova): 11; Fertilization rate (%) ([1]; sperms precultured 1 hour in TYH culture medium containing 1 μM compound #5, two-cell eggs observed 24 to 28 hours after semination, control without compound 40%): 100%; The number of two-cell eggs ([1]; sperms precultured 1 hour in TYH culture medium containing 10 μM FCCP and 1 μM compound #5, 10 ova): 5; Fertilization rate (%) ([1]; sperms precultured 1 hour in TYH culture medium containing 10 μM FCCP and 1 μM compound #5, FCCP alone 30%): 50%
	N#CC(C#N)=NNc1ccc(OC(F)(F)F)cc1 [FCCP, carbonyl cyanide-p-trifluoromethoxyphenylhydrazone, reference compound]	Fertilization rate (%) ([1]; sperms precultured 1 hour in TYH culture medium containing 10 μM FCCP (uncoupler), control without FCCP 47.4%): 30%; The number of two-cell eggs ([1]; sperms precultured 1 hour in TYH culture medium containing 10 μM FCCP, 10 ova): 3
181 to 183	COc1cccc2c(C(CC(=O)c3ccc(F)cc3F)C(=O)O)c[nH]c12 (centres unmarked) [(5-2), 4-(2,4-difluorophenyl)-2-(7-methoxy-1H-indol-3-yl)-4-oxo-butanoic Acid]	
205 to 206	COc1ccc2[nH]cc(C(CC(=O)c3ccc(F)cc3F)C(=O)O)c2c1 (centres unmarked) [(3-4), 4-(2,4-difluorophenyl)-2-(5-methoxy-1H-indol-3-yl)-4-oxo-butanoic Acid]	
236 to 239	O=C(CC(C(=O)O)c1c[nH]c2ccc(Cl)cc12)c1ccc(F)cc1F (centres unmarked) [(3-2), 2-(5-chloro-1H-indol-3-yl)-4-(2,4-difluorophenyl)-4-oxo-butanoic Acid]	

SMILES	melting point [°C]	other results
CCCCOc1ccc2cccc(CC(=O)O)c2c1 [Compound #33, α-(7-Butoxy-1-naphthalenyl)-acetic Acid]	102 to 104	
CCCCCOc1ccc2cccc(CC(=O)O)c2c1 [Compound #34, α-(7-Pentoxy-1-naphthalenyl)-acetic Acid]	104 to 106	
CCCCOc1ccc2[nH]cc(CC(=O)O)c2c1 [Compound #39, 5-(1-Butoxy)-3-indoleacetic Acid]	137.8 to 141.1	
